Assay [1] is described as follows: Bocillin-FL fluorescence polarization competition binding assay, A. baumannii PBP3. The conditions noted are these: fluorescence polarization competition binding assay using Bocillin-FL; column 3; read-out: 4. baumannii PBP1a Potency. The method in brief: (§1)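 A. baumannii PBP2 (2.5 μM) and PBP3 (0.2 μM) were run in 25 mM Tris pH 8.0 buffer with Tween 20; E. coli PBP3 (1.5 μM) and N. gonorrhoeae PBP2 ([…]) in 50 mM Hepes pH 8.0 buffer.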
On the technique in general: Polarisation of emitted light reports the rotation of a fluorescent probe.

A further assay concerns the target T1, P. aeruginosa PBP3 (Pseudomonas aeruginosa, UniProt G3XD46).
T1 construct: made in house
The assay is described as follows: Bocillin-FL fluorescence polarization competition binding assay, P. aeruginosa PBP3. Conditions: fluorescence polarization competition binding assay using Bocillin-FL. The method in brief: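 Inhibitor competition with Bocillin-FL for P. aeruginosa PBP3 was followed by fluorescence polarization on a Cytation3 (BioTek) reader, using g-factor 0.96, 490 nm excitation and 520 nm emission. The enzyme was at 0.75 μM and the probe at 0.1 μM in Hepes/NaCl/glycerol buffer, 80 μl per well. FP was recorded immediately after probe addition for up to 60 minutes. Potency was expressed as EC50, the concentration that reduces bound probe by 50%.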

Another assay addresses T2, N. gonorrhoeae PBP2 (Neisseria gonorrhoeae, UniProt P08149).
T2 construct: made in house
The assay is described as follows: Bocillin-FL fluorescence polarization competition binding assay, N. gonorrhoeae PBP2. Conditions: fluorescence polarization competition binding assay using Bocillin-FL; read-out: N. gonorrhoeae PBP2 Potency. The method in brief:
as §1

SMILES strings stand for the structures.

T1 sequence (G3XD46 whole entry): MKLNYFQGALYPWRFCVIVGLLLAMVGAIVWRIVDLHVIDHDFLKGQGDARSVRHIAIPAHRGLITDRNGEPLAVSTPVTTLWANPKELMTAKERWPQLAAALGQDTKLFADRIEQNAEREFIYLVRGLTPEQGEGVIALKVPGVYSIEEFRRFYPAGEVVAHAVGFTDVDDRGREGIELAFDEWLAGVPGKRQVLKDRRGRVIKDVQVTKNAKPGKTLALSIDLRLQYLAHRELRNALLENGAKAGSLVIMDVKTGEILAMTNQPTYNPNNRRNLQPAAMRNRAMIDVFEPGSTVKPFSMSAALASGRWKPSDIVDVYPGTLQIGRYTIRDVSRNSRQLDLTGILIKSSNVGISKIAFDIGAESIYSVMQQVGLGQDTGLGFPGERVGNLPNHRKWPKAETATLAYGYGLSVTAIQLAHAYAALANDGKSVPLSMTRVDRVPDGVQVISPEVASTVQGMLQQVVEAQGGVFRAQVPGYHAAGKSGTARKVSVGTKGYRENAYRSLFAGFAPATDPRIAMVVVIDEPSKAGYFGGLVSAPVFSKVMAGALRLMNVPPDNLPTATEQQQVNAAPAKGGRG
T2 sequence (P08149 whole entry): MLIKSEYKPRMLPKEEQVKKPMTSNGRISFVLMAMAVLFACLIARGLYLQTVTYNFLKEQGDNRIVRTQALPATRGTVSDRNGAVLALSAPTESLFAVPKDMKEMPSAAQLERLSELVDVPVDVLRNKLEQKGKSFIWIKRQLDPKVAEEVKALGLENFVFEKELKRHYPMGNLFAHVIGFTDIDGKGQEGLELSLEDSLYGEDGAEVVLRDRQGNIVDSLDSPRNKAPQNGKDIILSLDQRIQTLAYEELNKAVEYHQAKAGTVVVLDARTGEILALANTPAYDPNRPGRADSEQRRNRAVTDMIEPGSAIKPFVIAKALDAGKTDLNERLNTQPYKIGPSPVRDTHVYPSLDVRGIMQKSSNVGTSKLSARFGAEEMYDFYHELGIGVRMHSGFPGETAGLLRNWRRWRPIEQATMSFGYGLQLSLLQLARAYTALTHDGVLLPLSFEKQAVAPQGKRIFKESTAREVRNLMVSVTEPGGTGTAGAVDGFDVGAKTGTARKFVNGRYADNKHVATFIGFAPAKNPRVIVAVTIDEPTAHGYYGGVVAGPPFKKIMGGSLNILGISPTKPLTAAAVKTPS

For `NCCN1CCN(C(=O)N[C@H](C(=O)N[C@H]2Cc3cccc(C(=O)O)c3OB2O)c2c(F)cc(O)cc2F)C(=O)C1=O` (single isomer, unassigned) [Example 110], the EC50 in assay [1] is greater than 100 µM. The “P. aeruginosa PBP3 Potency” value at P. aeruginosa PBP3 was “B (B represents a potency between 30 μM and 500 μM inclusive)”.

With `CCN1CCN(C(=O)N[C@@H](C(=O)N[C@H]2Cc3cccc(C(=O)O)c3OB2O)c2ccc(C(=O)O)cc2)C(=O)C1=O` (single isomer, unassigned) [Example 124], the EC50 (in assay [1]; on N. gonorrhoeae PBP2) was less than 10 µM each time. For the same compound, on P. aeruginosa PBP3, the “P. aeruginosa PBP3 Potency” value is listed as “D (D represents a potency <10 μM)”.

In the case of `CCN1CCN(C(=O)N[C@H](C(=O)N[C@H]2Cc3ccc(F)c(C(=O)O)c3OB2O)c2c(F)cc(O)c(O)c2Cl)C(=O)C1=O` (single isomer, unassigned) [Example 125], in assay [1], the EC50 was greater than 100 µM. In addition, the “P. aeruginosa PBP3 Potency” value at P. aeruginosa PBP3 is recorded as “A (A represents a potency of >500 μM)”.

For `NC1(CN2CCN(C(=O)N[C@@H](C(=O)N[C@H]3Cc4ccc(F)c(C(=O)O)c4OB3O)c3cc(F)c(O)c(O)c3Cl)C(=O)C2=O)CC1` (single isomer, unassigned) [Example 133], in assay [1], the EC50 was less than 10 µM. Also, at P. aeruginosa PBP3, the “P. aeruginosa PBP3 Potency” value is recorded as “D (D represents a potency <10 μM)”.

Consider `CCN1CCN(C(=O)N[C@@H](C(=O)N[C@H]2Cc3cccc(C(=O)O)c3OB2O)c2ccc(C(=O)O)cc2Cl)C(=O)C1=O` (single isomer, unassigned) [Example 151], for which, on P. aeruginosa PBP3, the “P. aeruginosa PBP3 Potency” value is listed as “D (D represents a potency <10 μM)”. Also, the EC50 at N. gonorrhoeae PBP2 is less than 10 µM.

As to `CCN1CCN(C(=O)N[C@H](C(=O)N[C@H]2Cc3cccc(C(=O)O)c3OB2O)c2ccc(C(=O)O)cc2Cl)C(=O)C1=O` (single isomer, unassigned) [Example 152], the “P. aeruginosa PBP3 Potency” value on P. aeruginosa PBP3 was “D (D represents a potency <10 μM)”. Further, at N. gonorrhoeae PBP2, the EC50 fell in the range of 10 to 30 µM.

In the case of `CCN1CCN(C(=O)N[C@@H](C(=O)N[C@H]2Cc3cccc(C(=O)O)c3OB2O)c2ccc(C(=O)O)c(Cl)c2)C(=O)C1=O` (single isomer, unassigned) [Example 154], on P. aeruginosa PBP3, the “P. aeruginosa PBP3 Potency” value is given as “D (D represents a potency <10 μM)”. In addition, the EC50 at N. gonorrhoeae PBP2 was less than 10 µM.

`CCN1CCN(C(=O)N[C@H](C(=O)N[C@H]2Cc3cccc(C(=O)O)c3OB2O)c2ccc(C(=O)O)c(Cl)c2)C(=O)C1=O` (single isomer, unassigned) [Example 155]: the “P. aeruginosa PBP3 Potency” value on P. aeruginosa PBP3 was “D (D represents a potency <10 μM)”. On N. gonorrhoeae PBP2, the EC50 is less than 10 µM.

`NCCN1CCN(C(=O)N[C@@H](C(=O)N[C@H]2Cc3cccc(C(=O)O)c3OB2O)c2cc(F)c(O)c(F)c2)C(=O)C1=O` (single isomer, unassigned) [Example 159]: the “P. aeruginosa PBP3 Potency” value at P. aeruginosa PBP3 was “D (D represents a potency <10 μM)”. For the same compound, at N. gonorrhoeae PBP2, the EC50 is less than 10 µM.

As to `NCCN1CCN(C(=O)N[C@@H](C(=O)N[C@H]2Cc3cccc(C(=O)O)c3OB2O)c2cc(F)c(O)c(F)c2F)C(=O)C1=O` (single isomer, unassigned) [Example 168], the “P. aeruginosa PBP3 Potency” value at P. aeruginosa PBP3 was “D (D represents a potency <10 μM)”. For the same compound, the EC50 at N. gonorrhoeae PBP2 is less than 10 µM.

On to `CCN1CCN(C(=O)NC(C(=O)N[C@H]2Cc3cccc(C(=O)O)c3OB2O)c2cccc(C(=O)O)c2)C(=O)C1=O` (stereo partly drawn) [Example 113, (3R)-3-(2-(3-carboxyphenyl)-2-(4-ethyl-2,3-dioxopiperazine-1-carboxamido)acetamido)-2-hydroxy-3,4-dihydro-2H-benzo[e][1,2]oxaborinine-8-carboxylic acid], for which the “P. aeruginosa PBP3 Potency” value at P. aeruginosa PBP3 is “D (D represents a potency <10 μM)”. In addition, the EC50 on N. gonorrhoeae PBP2 was less than 10 µM.

With `NCCN1CCN(C(=O)NC(C(=O)N[C@H]2Cc3cccc(C(=O)O)c3OB2O)c2c(F)c(F)c(O)c(F)c2F)C(=O)C1=O` (stereo partly drawn) [Example 174, (3R)-3-(2-(4-(2-aminoethyl)-2,3-dioxopiperazine-1-carboxamido)-2-(2,3,5,6-tetrafluoro-4-hydroxyphenyl)acetamido)-2-hydroxy-3,4-dihydro-2H-benzo[e][1,2]oxaborinine-8-carboxylic acid], the “P. aeruginosa PBP3 Potency” value on P. aeruginosa PBP3 is reported as “D (D represents a potency <10 μM)”. For the same compound, the EC50 on N. gonorrhoeae PBP2 is less than 10 µM.

Take `CCN1CCN(C(=O)NC(C(=O)N[C@H]2Cc3cccc(C(=O)O)c3OB2O)c2c(F)c(F)c(O)c(F)c2F)C(=O)C1=O` (stereo partly drawn) [Example 175, (3R)-3-(2-(4-ethyl-2,3-dioxopiperazine-1-carboxamido)-2-(2,3,5,6-tetrafluoro-4-hydroxyphenyl)acetamido)-2-hydroxy-3,4-dihydro-2H-benzo[e][1,2]oxaborinine-8-carboxylic acid]: the “P. aeruginosa PBP3 Potency” value on P. aeruginosa PBP3 is recorded as “D (D represents a potency <10 μM)”. Further, the EC50 at N. gonorrhoeae PBP2 is less than 10 µM.

For the compound `CCN1CCN(C(=O)NC(C(=O)N[C@H]2Cc3cccc(C(=O)O)c3OB2O)c2c(F)cc(NS(N)(=O)=O)cc2F)C(=O)C1=O` (stereo partly drawn) [Example 176, (3R)-3-(2-(2,6-difluoro-4-(sulfamoylamino)phenyl)-2-(4-ethyl-2,3-dioxopiperazine-1-carboxamido)acetamido)-2-hydroxy-3,4-dihydro-2H-benzo[e][1,2]oxaborinine-8-carboxylic acid], at P. aeruginosa PBP3, the “P. aeruginosa PBP3 Potency” value is recorded as “D (D represents a potency <10 μM)”. The EC50 at N. gonorrhoeae PBP2 was less than 10 µM.

As for `NCCN1CCN(C(=O)NC(C(=O)N[C@H]2Cc3cccc(C(=O)O)c3OB2O)c2c(F)cc(NS(N)(=O)=O)cc2F)C(=O)C1=O` (stereo partly drawn) [Example 177, (3R)-3-(2-(4-(2-aminoethyl)-2,3-dioxopiperazine-1-carboxamido)-2-(2,6-difluoro-4-(sulfamoylamino)phenyl)acetamido)-2-hydroxy-3,4-dihydro-2H-benzo[e][1,2]oxaborinine-8-carboxylic acid], the “P. aeruginosa PBP3 Potency” value at P. aeruginosa PBP3 is “D (D represents a potency <10 μM)”. For the same compound, on N. gonorrhoeae PBP2, the EC50 fell in the range of 10 to 30 µM.

Consider `NCCCN1CCN(C(=O)NC(C(=O)N[C@H]2Cc3ccc(F)c(C(=O)O)c3OB2O)c2c(F)cc(O)cc2F)C(=O)C1=O` (stereo partly drawn) [Example 178, (3R)-3-(2-(4-(3-aminopropyl)-2,3-dioxopiperazine-1-carboxamido)-2-(2,6-difluoro-4-hydroxyphenyl)acetamido)-7-fluoro-2-hydroxy-3,4-dihydro-2H-benzo[e][1,2]oxaborinine-8-carboxylic acid], for which the “P. aeruginosa PBP3 Potency” value at P. aeruginosa PBP3 was “D (D represents a potency <10 μM)”. For the same compound, the EC50 on N. gonorrhoeae PBP2 was greater than 100 µM.
